Target: T1, mature Arabidopsis BIO3-BIO1 (SEQ ID NO: 21) (Arabidopsis thaliana, UniProt B0F481)
T1 construct: 6xHis (N); thrombin cleavage site (N); made in house; host or cells: E. coli BL21 (DE3) bioA
T1 sequence (B0F481 with tags, fused parts or gaps): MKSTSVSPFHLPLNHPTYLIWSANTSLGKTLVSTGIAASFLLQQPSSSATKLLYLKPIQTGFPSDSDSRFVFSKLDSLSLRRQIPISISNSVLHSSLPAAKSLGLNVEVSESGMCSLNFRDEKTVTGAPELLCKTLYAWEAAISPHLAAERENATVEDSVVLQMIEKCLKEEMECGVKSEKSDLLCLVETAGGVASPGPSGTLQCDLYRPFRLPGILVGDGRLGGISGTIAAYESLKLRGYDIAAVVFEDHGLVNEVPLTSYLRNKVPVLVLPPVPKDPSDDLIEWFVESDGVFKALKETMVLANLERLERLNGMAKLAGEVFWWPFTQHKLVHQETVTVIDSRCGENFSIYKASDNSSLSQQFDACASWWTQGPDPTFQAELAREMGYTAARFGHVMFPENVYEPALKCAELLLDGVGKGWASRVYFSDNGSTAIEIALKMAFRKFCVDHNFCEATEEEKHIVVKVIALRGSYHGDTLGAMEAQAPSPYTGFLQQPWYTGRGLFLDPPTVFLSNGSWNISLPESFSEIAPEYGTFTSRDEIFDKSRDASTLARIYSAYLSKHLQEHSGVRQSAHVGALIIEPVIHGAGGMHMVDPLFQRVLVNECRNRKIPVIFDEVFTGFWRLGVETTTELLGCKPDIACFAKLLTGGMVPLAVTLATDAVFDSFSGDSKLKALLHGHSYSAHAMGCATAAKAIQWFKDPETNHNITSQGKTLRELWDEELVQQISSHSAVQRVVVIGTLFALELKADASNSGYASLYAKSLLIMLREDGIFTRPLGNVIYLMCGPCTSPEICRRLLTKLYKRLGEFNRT
Experiment: DAPA-AT assay with spermidine as amine donor, fluorescent detection of DAPA:o-phthalaldehyde
Type: biochemical
Conditions: 10 μM spermidine, 1 μM KAPA, 60 minutes at 20° C.; for inhibition at 20 µM: inhibitor concentration 20 μM; for inhibition at 100 µM: inhibitor concentration 100 μM; for inhibition at 0.2 µM: inhibitor concentration 0.2 μM; for inhibition at 1 µM: inhibitor concentration 1 μM; for inhibition at 5 µM: inhibitor concentration 5 μM
Experimental: A pET-24 plasmid containing a DNA sequence encoding BIO3-BIO1 derived from Arabidopsis thaliana, codon-optimised for expression in E. coli, with the predicted N-terminal mitochondrial transit peptide removed and with an N-terminal 6×His-tag and thrombin cleavage site and under control of a T7 promoter (SEQ ID NO:38), was synthesised by Twist Bioscience. The plasmid was expressed in E. coli BL21 (DE3) bioA with 50 μg/mL kanamycin and 25 μg/mL chloramphenicol selection. Overnight cultures grown at 37° C. were used to inoculate 8×500 mL AIM in shake flasks at a ratio of 1:100. Cultures were grown at 37° C., 200 rpm for 3.5 hours and then overnight at 20° C. Cells were harvested by centrifugation for 30 minutes at 10 000 g. Cells were stored at −80° C. until extraction. 30 g of cell pellet from was thawed in 120 mL of IMAC buffer A (20 mM HEPES pH7.5, 25 mM imidazole, 500 mM sodium chloride, 0.15 mM pyridoxal phosphate, 0.5 mM TCEP, 1×complete Protease Inhibitor Tablet (Roche)). The resuspension was passed through a cell disrupter at 18 000 PSI and centrifuged at 50 000 g for 25 minutes at 4° C. The His-tagged BIO3-BIO1 protein was purified from the extract supernatant on an ÄKTA avant chromatography system (Cytiva) using a HisTrap FF column and eluted in IMAC buffer B ((20 mM HEPES pH7.5, 500 mM imidazole, 500 mM sodium chloride, 0.15 mM pyridoxal phosphate, 0.5 mM TCEP) followed by SEC using a HiLoad 26/60 Superdex200 column in SEC buffer (25 mM HEPES pH7.5, 150 mM sodium chloride, 0.15 mM pyridoxal phosphate, 0.5 mM TCEP). Protein concentration was measured and calculated using the absorbance at 280 nm. Extracts were diluted 1 in 4 and 10 uL was analysed by SDS PAGE.
To measure DAPA-AT enzyme activity in the presence of herbicide (candidate compound), 0.5 μL of the herbicide was incubated with 20 μL of enzyme mix (100 mM EPPS pH 8.6, 0.1 mM pyridoxal phosphate, 0.1 mg/mL BSA, 25 nM BIO3-BIO1 enzyme) for 10 minutes at 20° C. in a well of a 384-well black plate, followed by the addition of 20 μL of substrate mix (final concentration of 100 mM EPPS pH 8.6, 0.1 mM pyridoxal phosphate, 0.1 mg/mL BSA, 10 μM spermidine, 1 μM KAPA, 100 mM NaHCO3) and further incubation for 60 minutes at 20° C. The reaction was terminated by the addition of 50 μL of derivatisation mix consisting of 185 mM borate NaOH pH 9.4, 3 mM o-phthalaldehyde, 6 mM β-mercaptoethanol, 22.5% (v/v) ethanol, 3% (v/v) methanol. The fluorescent product produced by the reaction of DAPA with o-phthalaldehyde and β-mercaptoethanol was measured at 470 nm after excitation at 410 nm. The percentage inhibition was calculated using the equation, % inhibition=100×((((MAX−MIN)−(X−MIN))/(MAX−MIN))), where MIN and MAX are the average of the minimum reaction and maximum reaction controls and X is the test sample. Compounds are typically added directly to the assay plate in a serial 3× dilution from a top final concentration of 100 μM over 10 different concentrations. The percent inhibition values are fitted to a dose-response using the equation Y=Bottom+(Top−Bottom)/(1+((X^Hill Slope)/(IC50^Hill Slope))) to calculate the compound concentration that gives 50% inhibition (IC50).

| SMILES | inhibition at 20 µM | inhibition at 100 µM | inhibition at 0.2 µM | inhibition at 1 µM | inhibition at 5 µM |
| --- | --- | --- | --- | --- | --- |
| C[C@@H](N)COc1cccc(C(=O)O)n1 [Compound E, [(1R)-2-(6-carboxypyridin-1-ium-2-yl)oxy-1-methyl-ethyl]ammonium; dichloride] | 80% | 94% | – | – | – |
| CCn1c(C)c(-c2cc(OC(F)(F)F)ccc2Cl)c(=O)c(C(=O)O)c1-c1ccc(Cl)c(Cl)c1 [Compound D, 5-[2-chloro-5-(trifluoromethoxy)phenyl]-2-(3,4-dichlorophenyl)-1-ethyl-6-methyl-4-oxo-pyridine-3-carboxylic acid] | – | – | 51% | 84% | 95% |
| CC(O)C(N)CCCCC(=O)O (centres unmarked) [Compound B, [5-carboxy-1-(1-hydroxyethyl)pentyl]ammonium; chloride] | 84% | 95% | – | – | – |
| CCn1c(-c2ccc(Cl)c(Cl)c2)c(C(=O)O)c(=O)c2cc(F)ccc21 [Compound M, 2-(3,4-dichlorophenyl)-1-ethyl-6-fluoro-4-oxo-quinoline-3-carboxylic acid] | – | – | – | 58% | 82% |
| CCn1c(C)c(-c2ccc(F)cc2F)c(=O)c(C(=O)O)c1-c1ccc(Cl)c(Cl)c1 [Compound C, 2-(3,4-dichlorophenyl)-5-(2,4-difluorophenyl)-1-ethyl-6-methyl-4-oxo-pyridine-3-carboxylic acid] | – | – | 29% | 64% | 85% |
| CCn1c(Cn2ccc(C(F)(F)F)n2)cc(=O)c(C(=O)O)c1-c1ccc(Cl)c(Cl)c1 [Compound L, 2-(3,4-dichlorophenyl)-1-ethyl-4-oxo-6-[[3-(trifluoromethyl)pyrazol-1-yl]methyl]pyridine-3-carboxylic acid] | – | – | 6% | 44% | 83% |
| CCOC(=O)c1nn(-c2ccc3c(c2)OC(F)(F)C(F)(F)O3)c2cccc(C(C)=O)c2c1=O [Compound A, ethyl 5-acetyl-4-oxo-1-(2,2,3,3-tetrafluoro-1,4-benzodioxin-6-yl)cinnoline-3-carboxylate] | – | – | – | 59% | 84% |
